Counter-ions that a name gives are not always drawn.
Test system: IL-1α (cytokine expression in hTERT keratinocytes)
Test: In vitro assay: IL-1α in supernatants of IL-1β-treated hTERT keratinocytes (sandwich immunoassay, indexed to ATP viability)
Format: cell-based, human
Details: for Avg IL-1α measurement: hTERT keratinocytes, 18 hrs, 6 replicates; for IL-1α reduction compared in words (significance groupings): 500 ppm, IL-1β treated hTERT keratinocytes, >95% confidence
Procedure: The following in vitro assay test was conducted to determine the effect of White Tea Extract, Panthenol and Glycyrrhizinate salt on cytokine expression in hTERT keratinocytes:
BACKGROUND: hTERT-keratinocytes are a telomerase-immortalized neonatal epidermal keratinocyte line. Cell cultures of this type are known in the literature and have been used as models for multiple pathways as shown in the following references: Shay and Wright; Carcinogenesis, vol 26; no 5, pp 867-74, 2005; Bodner, et. al., Science, vol 279 pp 349-52, 1998; Ramirez, et. al., Oncogene, 22; pp 433-44, 2002. These cells display many features characteristic of normal primary keratinocytes and respond to normal growth controls in vitro.
TEST PROTOCOL: all measures were run in replicate (n=6).
To ensure proper levels of the biological active molecules for the in vitro study, dilution studies are conducted and ATP is analyzed for the highest non-cytotoxic concentration. White Tea Extract (H1615 WS, lot 98680094S-005) at a level of 500 ppm, Panthenol (lot 10063909S-018) at a level of 500 ppm, and Glycyrrhizinate salt (Barnet 25908N297) at a level of 500 ppm are used for this study. ATP analysis is described below.
ATP analysis is conducted using Cell Titer-Glo. The CellTiter-Glo Luminescent Cell Viability Assay is obtained from Promega Corporation (Madison, Wis.). This assay is a homogeneous method for determining the number of viable cells in culture based on quantitation of ATP present, signaling the presence of metabolically active cells. After the final treatment and supernatants collected, the CellTiter-Glo reagent is added. The reagent is then transferred to a BD Falcon (Franklin Lakes, N.J.) Microtest 96-well Assay Plate (black, flat bottom, reference 353945, lot 041151). Luminescence is read on a Perkin Elmer Fluorimeter (Wallac Envision 2101 Multilabel Reader). Relative luminescence units are plotted in percent control versus treatment concentration.
hTERT cells are cultured in complete EpiLife (Cascade Biologics, Portland, Oreg.) culture media in T75 culture flasks (Falcon, Becton Dickinson Labware, Franklin Lakes, N.J.) under 37° C./5% CO2 conditions. […] 2 ml of the cell suspension (density 20,000/cm^2) are plated in each well of a 6-well culture dish (Falcon) and cultured under 37° C./5% CO2 conditions overnight. A complete media exchange is performed and the cells are again cultured overnight under 37° C./5% CO2 conditions. The culture media is removed and 2 ml of treatment are placed in each well and the cells are cultured for 18 hrs. For all legs other than Control, IL-1β is added to the treatment at 1 nanogram per mL (for 2 nanograms per treatment). After the treatment period, the cell culture supernatants are collected and analyzed immediately for Interleukin-1α with an R&D Systems (Minneapolis, Minn.) kit which deploys the quantitative sandwich immunoassay technique. ATP is measured from cell lysates an indicator of viability. IL-1α is indexed to cell viability to ensure a proper reading of actual activity.
TESTING: This test was conducted and the analysis of the data is as follows. Statistical differences among treatments for IL-1α were analyzed via JMP using a log-transform before the analysis of variance. The log-transform ensures that the response data are normally distributed and have equal variance. […]

[1] = 500 ppm ingredient + IL-1β 1 nanogram per mL, IL-1α indexed to cell viability

Row | Compound | Avg IL-1α measurement (4.5 ppm + IL-1β, positive control) | Avg IL-1α measurement [1] | IL-1α reduction compared in words (significance groupings)
1 | C[C@H]1C[C@H]2[C@@H]3CCC4=CC(=O)C=C[C@]4(C)[C@@]3(F)[C@@H](O)C[C@]2(C)[C@@]1(O)C(=O)CCl [Clobetasol, reference compound] | 14.29 | – | –
2 | CC1(C)[C@@H](O[C@H]2O[C@H](C(=O)O)[C@@H](O)[C@H](O)[C@H]2O[C@H]2O[C@@H](C(=O)O)[C@H](O)[C@@H](O)[C@@H]2O)CC[C@]2(C)[C@H]3C(=O)C=C4[C@@H]5C[C@@](C)(C(=O)O)CC[C@]5(C)CC[C@@]4(C)[C@]3(C)CC[C@@H]12 [Glycyrrhizinate salt] | – | 17.57 | slightly higher IL-1α reduction
3 | CC(C)(CO)[C@@H](O)C(=O)NCCCO [Panthenol] | – | 24.41 | not significantly different than the IL-1β treated cells
